How the values were obtained:
[1] = target: T1, GABA transporter 4 (Mus musculus) (UniProt P31650); assay: Inhibition of mouse GAT4 expressed in HEK293 cells assessed as remaining [3H]GABA uptake at 100 uM preincubated for 25 mins followed by [3H]GABA addition and measured after 4 mins by liquid scintillation counting method; format: cell-based
T1 sequence (whole entry): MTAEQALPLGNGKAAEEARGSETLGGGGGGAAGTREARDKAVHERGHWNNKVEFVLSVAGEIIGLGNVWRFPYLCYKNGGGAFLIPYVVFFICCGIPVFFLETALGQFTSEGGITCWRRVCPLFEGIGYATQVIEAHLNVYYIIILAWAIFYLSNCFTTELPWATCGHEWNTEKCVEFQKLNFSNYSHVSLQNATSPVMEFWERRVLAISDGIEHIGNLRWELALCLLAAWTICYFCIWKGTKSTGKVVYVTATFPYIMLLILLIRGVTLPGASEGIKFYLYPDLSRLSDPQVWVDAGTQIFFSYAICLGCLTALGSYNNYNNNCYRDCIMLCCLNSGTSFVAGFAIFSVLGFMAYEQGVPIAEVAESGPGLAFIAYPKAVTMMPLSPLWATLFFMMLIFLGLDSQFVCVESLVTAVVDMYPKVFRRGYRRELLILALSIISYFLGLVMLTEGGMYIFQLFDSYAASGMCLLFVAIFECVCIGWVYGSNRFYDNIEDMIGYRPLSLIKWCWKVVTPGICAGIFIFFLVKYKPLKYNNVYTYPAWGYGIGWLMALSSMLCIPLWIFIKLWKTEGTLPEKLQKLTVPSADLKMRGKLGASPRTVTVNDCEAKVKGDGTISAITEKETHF

[2] = test system: Sodium- and chloride-dependent GABA transporter 2 (Mus musculus); assay: Inhibition of mouse GAT3 expressed in HEK293 cells assessed as remaining [3H]GABA uptake at 100 uM preincubated for 25 mins followed by [3H]GABA addition and measured after 4 mins by liquid scintillation counting method
GABA transporter 4 = target: T2, GABA transporter 4 (Mus musculus, UniProt P31650); assay: Inhibition of mouse GAT4 expressed in HEK293 cells assessed as reduction in [3H]GABA uptake preincubated for 25 mins followed by [3H]GABA addition and measured after 4 mins by liquid scintillation counting method; format: cell-based
T2 sequence (P31650 whole entry): T1 sequence (whole entry)

[3] = target: T3, Sodium- and chloride-dependent GABA transporter 1 (Mus musculus, UniProt P31648); assay: Inhibition of NO711 binding to mouse GAT1 expressed in HEK293 cell membranes assessed as reduction in NO711 binding at incubated for 4 hrs in presence of NO711 by LC-ESI-MS/MS analysis relative to control
[4] = target: T3, Sodium- and chloride-dependent GABA transporter 1; assay: Inhibition of mouse GAT1 expressed in HEK293 cells assessed as reduction in [3H]GABA uptake preincubated for 25 mins followed by [3H]GABA addition and measured after 4 mins by liquid scintillation counting method; format: cell-based
[5] = test system: Sodium- and chloride-dependent betaine transporter (Mus musculus); assay: Inhibition of mouse GAT2 expressed in HEK293 cells assessed as remaining [3H]GABA uptake at 100 uM preincubated for 25 mins followed by [3H]GABA addition and measured after 10 mins by liquid scintillation counting method relative to control

Activity [1] [%] | Activity [2] [%] | IC50 (GABA transporter 4) [nM] | Ki [3] [nM] | IC50 [4] [nM] | Kd [3] [nM] | Activity [5] [%] | Compound
56 | 62 | ≥ 100000 | 389 | 2290 |  |  | O=C(O)C1CCN(CCO/N=C/c2ccccc2-c2ccc(Cl)cc2Cl)C1 (stereo not given)
 |  |  |  | 4070 |  |  | O=C(O)CC1CCNC1 (stereo not given)
 |  |  |  | 67600 |  |  | O=C(O)C1CCNC1 (stereo not given)
 |  |  |  |  | 26.5 |  | O=C(O)C1=CCCN(CCON=C(c2ccccc2)c2ccccc2)C1
66 | 75 | ≥ 100000 | 692 | 4790 |  | 52 | O=C(O)C1CCN(CCO/N=C/c2ccccc2-c2ccc(F)cc2Cl)C1 (stereo not given)
89 | 93 | ≥ 100000 | 407 | 1910 |  | 86 | COc1cccc(F)c1-c1ccccc1/C=N/OCCN1CCC(C(=O)O)C1 (stereo not given)
